In ChEMBL document CHEMBL1201862, “PubChem BioAssay data set” (2004):
Each block holds one compound with its values, some of them ahead of it. Activity calls are given as the source filed them.

Tests used:
[1] = molecular target: Troponin, cardiac muscle (Homo sapiens, UniProt P19429+P45379+P63316); experiment: Fluorescence-based biochemical high throughput dose response assay for activators of the calcium sensitivity of cardiac Regulated Thin Filaments (RTF). [Related pubchem assays (depositor defined):AID493008, AID493018, AID504382, AID504383]; assay type: protein-complex assay
[2] = molecular target: Protein Wnt-3a (Mus musculus, UniProt P27467); experiment: Wnt3a-driven reporter signaling inhibition, dose response, selectivity assay for Gli-SUFU antagonist project, Wnt-LIGHT cells, luminescence (AID 651570); assay type: functional; settings: read-out: IC50_Mean;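 also: Wnt-LIGHT reporter cells stimulated with conditioned medium from Wnt3a-producing cells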
[3] = molecular target: Cytochrome P450 2C9 (Homo sapiens, UniProt P11712)
[4] = molecular target: Cytochrome P450 2C19 (Homo sapiens, UniProt P33261); experiment: Cytochrome panel assay with activity outcomes. Panel member name: p450-cyp2c19 Compounds with AC50 equal or less than 10 uM are considered active; assay type: functional; settings: read-out: AC50
[5] = molecular target: Cytochrome P450 3A4 (Homo sapiens, UniProt P08684);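 also: CYP3A4 tested as one member of a cytochrome P450 panel screen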
[6] = molecular target: T1, Cytochrome P450 1A2 (Homo sapiens, UniProt P05177);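 also: PubChem cytochrome P450 panel assay, CYP1A2 panel member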
T1 sequence (P05177 whole entry): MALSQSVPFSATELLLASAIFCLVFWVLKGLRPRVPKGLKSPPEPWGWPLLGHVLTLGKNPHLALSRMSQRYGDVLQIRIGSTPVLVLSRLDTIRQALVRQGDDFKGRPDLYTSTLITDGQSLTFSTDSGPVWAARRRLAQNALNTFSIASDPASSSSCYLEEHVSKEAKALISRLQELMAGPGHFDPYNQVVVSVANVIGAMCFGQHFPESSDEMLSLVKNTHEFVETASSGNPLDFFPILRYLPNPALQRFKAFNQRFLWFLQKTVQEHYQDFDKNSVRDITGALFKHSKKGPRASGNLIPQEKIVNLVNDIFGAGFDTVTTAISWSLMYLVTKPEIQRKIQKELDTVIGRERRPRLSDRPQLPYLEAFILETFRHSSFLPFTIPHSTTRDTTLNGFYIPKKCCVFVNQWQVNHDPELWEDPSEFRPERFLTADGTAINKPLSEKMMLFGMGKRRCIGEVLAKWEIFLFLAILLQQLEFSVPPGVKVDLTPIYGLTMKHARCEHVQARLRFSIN

[7] = molecular target: Cytochrome P450 2D6 (Homo sapiens, UniProt P10635);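 also: CYP2D6 member of a cytochrome P450 panel assay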
[8] = molecular target: Phospholipase A2 (Homo sapiens, UniProt P04054); assay type: functional;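 also: confirmatory dose-response counterscreen on phospholipase A2, testing hits that came from an ultra-high-throughput screen for ATG4B inhibitors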
[9] = molecular target: T2, Cysteine protease ATG4B (Homo sapiens, UniProt Q9Y4P1); assay type: functional;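 also: Fluorescence-based dose-response confirmation assay measuring inhibition of ATG4B activity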
T2 sequence (Q9Y4P1 whole entry): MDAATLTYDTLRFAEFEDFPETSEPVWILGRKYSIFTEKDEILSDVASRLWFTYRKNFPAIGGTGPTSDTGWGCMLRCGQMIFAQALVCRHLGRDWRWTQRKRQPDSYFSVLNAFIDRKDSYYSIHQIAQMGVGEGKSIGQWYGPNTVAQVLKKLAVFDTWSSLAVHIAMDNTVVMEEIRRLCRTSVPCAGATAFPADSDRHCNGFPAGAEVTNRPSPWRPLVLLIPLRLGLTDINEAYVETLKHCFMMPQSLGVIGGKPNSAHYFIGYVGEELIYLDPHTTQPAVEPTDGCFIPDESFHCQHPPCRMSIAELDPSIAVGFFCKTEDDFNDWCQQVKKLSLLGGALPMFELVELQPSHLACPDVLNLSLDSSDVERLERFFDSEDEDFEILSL

[10] = HepG2 cell cytotoxicity, dose response, cytotoxicity control for Shn3 inhibitor project, CellTiter-Glo, cherry-picked (AID 624134); assay type: functional, cell-based
[11] = system: INS1; experiment: beta cell apoptosis inhibitors, cytokine rescue, dose response, luminescence, retest (AID 449756); assay type: functional, cell-based; settings: Rattus norvegicus;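 also: cell death triggered by IL-1 beta plus TNF-alpha plus IFN-gamma mixture; protective hits raise ATP signal compared with cytokine alone wells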
[12] = Shn3 3'UTR reporter inhibitors, dose response, cell-based, Clone20 osteoblasts, firefly luciferase, cherry-picked (AID 624132); assay type: functional;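 also: firefly luciferase luminescence from reporter carrying the Shn3 3'UTR in osteoblasts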
[13] = control 3'UTR Renilla luciferase suppression, dose response, counter-screen for Shn3 inhibitor project, cell-based, Clone20-Shn3RL, cherry-picked (AID 624133); assay type: functional
[14] = system: HEK293; experiment: inhibitors of LMP1-driven NF-kB reporter, dose response, cell-based, HEK293, luciferase, cherry-pick (AID 588343); assay type: functional; settings: Homo sapiens
[15] = intracellular Trypanosoma cruzi inhibitors in host cells – cell-based, plate reader, cherry-pick samples, set 3, dose response (AID 651818); assay type: functional;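 also: compounds incubated with infected cells for about four days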
[16] = molecular target: Glucose-6-phosphate 1-dehydrogenase (Homo sapiens, UniProt P11413); experiment: human G6PD enzyme inhibitors, dose response, selectivity assay for P. falciparum G6PD inhibitor project, biochemical, fluorescence (AID 504792); assay type: functional
Sequence of Glucose-6-phosphate 1-dehydrogenase (P11413 whole entry): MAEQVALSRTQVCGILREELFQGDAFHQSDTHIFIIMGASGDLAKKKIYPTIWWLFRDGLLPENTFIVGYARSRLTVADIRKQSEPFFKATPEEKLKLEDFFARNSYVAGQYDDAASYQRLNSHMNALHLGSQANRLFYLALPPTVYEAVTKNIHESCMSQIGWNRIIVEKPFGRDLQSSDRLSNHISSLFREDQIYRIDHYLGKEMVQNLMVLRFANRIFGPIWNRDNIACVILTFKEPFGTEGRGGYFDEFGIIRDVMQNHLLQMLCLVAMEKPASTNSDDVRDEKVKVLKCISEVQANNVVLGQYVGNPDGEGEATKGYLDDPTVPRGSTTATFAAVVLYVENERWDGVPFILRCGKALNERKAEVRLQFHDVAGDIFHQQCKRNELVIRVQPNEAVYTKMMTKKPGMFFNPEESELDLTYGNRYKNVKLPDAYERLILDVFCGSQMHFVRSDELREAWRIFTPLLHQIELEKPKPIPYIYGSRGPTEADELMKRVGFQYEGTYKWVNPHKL

Sequence of Phospholipase A2 (P04054 whole entry): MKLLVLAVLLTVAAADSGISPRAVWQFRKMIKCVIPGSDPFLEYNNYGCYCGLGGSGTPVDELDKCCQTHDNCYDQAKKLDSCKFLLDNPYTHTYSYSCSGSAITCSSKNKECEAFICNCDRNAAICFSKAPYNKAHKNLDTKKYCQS
Sequence of Cytochrome P450 3A4 (P08684 whole entry): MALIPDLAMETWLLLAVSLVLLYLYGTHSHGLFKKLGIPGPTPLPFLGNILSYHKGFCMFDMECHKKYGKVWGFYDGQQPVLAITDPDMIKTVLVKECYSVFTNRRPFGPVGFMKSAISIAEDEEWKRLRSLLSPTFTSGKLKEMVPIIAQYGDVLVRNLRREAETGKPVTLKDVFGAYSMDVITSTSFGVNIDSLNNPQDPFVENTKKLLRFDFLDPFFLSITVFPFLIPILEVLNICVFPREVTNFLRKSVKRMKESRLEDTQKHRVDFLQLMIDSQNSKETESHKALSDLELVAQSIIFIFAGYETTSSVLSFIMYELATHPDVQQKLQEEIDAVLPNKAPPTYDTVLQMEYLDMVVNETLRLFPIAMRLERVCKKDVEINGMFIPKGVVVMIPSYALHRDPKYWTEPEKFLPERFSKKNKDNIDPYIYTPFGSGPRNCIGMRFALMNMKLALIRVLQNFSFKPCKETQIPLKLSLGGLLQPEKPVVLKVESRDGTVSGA
Sequence of Protein Wnt-3a (P27467 whole entry): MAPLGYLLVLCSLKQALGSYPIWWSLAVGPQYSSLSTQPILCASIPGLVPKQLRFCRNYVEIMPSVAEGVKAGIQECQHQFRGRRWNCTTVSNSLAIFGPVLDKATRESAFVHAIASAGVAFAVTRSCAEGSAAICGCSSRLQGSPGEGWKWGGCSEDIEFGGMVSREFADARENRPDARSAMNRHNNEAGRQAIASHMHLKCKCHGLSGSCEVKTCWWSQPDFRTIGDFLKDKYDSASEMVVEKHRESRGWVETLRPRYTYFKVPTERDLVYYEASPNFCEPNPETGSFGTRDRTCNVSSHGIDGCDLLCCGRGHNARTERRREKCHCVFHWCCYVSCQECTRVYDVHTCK
Sequence of Cytochrome P450 2D6 (P10635 whole entry): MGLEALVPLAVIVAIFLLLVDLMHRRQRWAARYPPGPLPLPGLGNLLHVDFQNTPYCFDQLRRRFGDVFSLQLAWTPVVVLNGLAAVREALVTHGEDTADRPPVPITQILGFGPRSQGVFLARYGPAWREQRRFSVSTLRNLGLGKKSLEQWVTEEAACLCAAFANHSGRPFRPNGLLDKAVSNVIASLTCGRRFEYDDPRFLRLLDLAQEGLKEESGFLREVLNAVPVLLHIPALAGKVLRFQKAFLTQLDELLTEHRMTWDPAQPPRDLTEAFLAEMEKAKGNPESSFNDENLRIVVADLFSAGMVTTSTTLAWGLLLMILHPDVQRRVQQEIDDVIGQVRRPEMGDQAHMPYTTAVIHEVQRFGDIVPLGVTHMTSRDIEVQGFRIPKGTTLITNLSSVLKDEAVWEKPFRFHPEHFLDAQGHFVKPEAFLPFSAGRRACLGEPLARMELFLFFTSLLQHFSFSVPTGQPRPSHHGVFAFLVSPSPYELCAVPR
Sequence of Cytochrome P450 2C9 (P11712 whole entry): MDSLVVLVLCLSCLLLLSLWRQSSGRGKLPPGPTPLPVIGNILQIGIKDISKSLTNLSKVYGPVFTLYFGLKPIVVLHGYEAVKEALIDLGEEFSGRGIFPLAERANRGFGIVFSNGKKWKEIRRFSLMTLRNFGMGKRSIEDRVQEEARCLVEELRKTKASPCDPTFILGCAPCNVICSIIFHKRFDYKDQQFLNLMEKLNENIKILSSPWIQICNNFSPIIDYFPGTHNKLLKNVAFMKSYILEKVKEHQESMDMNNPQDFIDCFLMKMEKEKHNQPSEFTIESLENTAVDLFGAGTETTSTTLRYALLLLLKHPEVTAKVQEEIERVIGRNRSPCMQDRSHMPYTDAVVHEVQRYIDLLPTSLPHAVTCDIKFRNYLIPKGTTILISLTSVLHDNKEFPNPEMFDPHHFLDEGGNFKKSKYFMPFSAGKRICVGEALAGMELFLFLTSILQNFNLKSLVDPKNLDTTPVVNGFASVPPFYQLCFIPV
Sequence of Cytochrome P450 2C19 (P33261 whole entry): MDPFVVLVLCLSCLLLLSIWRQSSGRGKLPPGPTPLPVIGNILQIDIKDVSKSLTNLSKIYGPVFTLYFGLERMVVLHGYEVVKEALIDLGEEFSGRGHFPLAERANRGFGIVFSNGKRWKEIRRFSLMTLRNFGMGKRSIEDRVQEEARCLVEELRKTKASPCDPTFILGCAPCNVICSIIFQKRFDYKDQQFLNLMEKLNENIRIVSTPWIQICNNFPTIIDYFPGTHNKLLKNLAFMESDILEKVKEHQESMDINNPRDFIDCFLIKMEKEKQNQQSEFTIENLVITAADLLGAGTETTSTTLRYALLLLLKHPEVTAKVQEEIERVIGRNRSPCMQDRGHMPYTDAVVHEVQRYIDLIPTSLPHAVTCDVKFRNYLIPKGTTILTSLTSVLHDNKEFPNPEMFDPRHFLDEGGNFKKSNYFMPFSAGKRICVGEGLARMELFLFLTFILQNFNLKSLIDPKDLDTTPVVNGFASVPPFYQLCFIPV

EC50 [1]: > 71.5 µM (inactive)
SMILES: COc1c(O)cccc1-c1nnn(CCC(=O)OCC(=O)c2ccccc2)n1

IC50 [2]: 1.7 µM (active)
SMILES: COc1cccc(/C=C/c2ccncc2)c1OC

AC50 [3]: 12.6 µM (inconclusive) | AC50 [4]: 15.8 µM (inconclusive) | AC50 [5]: inconclusive | AC50 [6]: 15.8 µM (inconclusive) | AC50 [7]: 7.94 µM (inconclusive)
SMILES: O=C(CCCN1CCN(c2ccccn2)CC1)c1ccc(F)cc1 [AZAPERONE]

IC50 [8]: 12.3 µM (active) | IC50 [9]: 17.9 µM (active)
SMILES: COC(=O)c1ccc(C(=O)N2CCCC(Nc3ccc(C(C)C)cc3)C2)nc1 (configuration not stated)

SMILES: O=C(c1cnc(N2CCN(c3ccccn3)CC2)c2ccccc12)N1CCN(c2cccc(Cl)c2)CC1
IC50 [2]: 7.02 µM (active) | AC50 [10]: 59.9 µM (active) | AC50 [11]: 6.14 µM (active) | AC50 [12]: 1.99 µM (active) | AC50 [13]: 3.68 µM (active)

AC50 [5]: inconclusive
SMILES: O=C(c1ccco1)N1CCC2(CC1)CCN(c1ccc(-c3ccccc3)cc1)CC2

SMILES: Cc1ccsc1-c1nc(CSCC(=O)N2CCN(c3ccccc3)CC2)c(C)o1
AC50 [14]: 225 µM (active)

SMILES: C[C@H]1CN([C@@H](C)CO)C(=O)c2cccc(NC(=O)c3nc4ccccc4s3)c2O[C@@H]1CN(C)S(=O)(=O)c1ccc(Cl)cc1
AC50 [15]: 1.8 µM (active)

IC50 [8]: 2.83 µM (active) | IC50 [9]: 8.65 µM (active)
SMILES: Cc1ccc(C(=O)O/N=C2\CCCc3ccccc32)cc1

SMILES: CCN1CCN(Cc2ccc(NC(=O)c3ccc(C)c(NC(=O)c4nccnc4N)c3)cc2C(F)(F)F)CC1
AC50 [14]: 0.528 µM (active)

SMILES: CN1C(=O)/C(=C/C=C2\SCCN2C)OC1=S
EC50 [1]: 7 µM (active)

IC50 [16]: 12.5 µM (active)
SMILES: Cc1ccc(-c2c(C(=O)N/N=C/c3ccc(C)o3)nnn2-c2nonc2N)cc1
